Reference: US20220378923A1, “BET DEGRADER” (KYOWA KIRIN CO., LTD., priority 2019, published 2022)

What was measured:
Format in all cases: cell-based
Conditions in all cases: SU-DHL-4 cells, test compound 100 nmol/L, 24 hours
[1] = biological target: T1, BRD2 (Homo sapiens, UniProt P25440); experiment: Evaluation of BET proteolysis in SU-DHL-4 cell line by Western blotting: BRD2 (Test Example 4)
T1 construct: Changes in the amount of BRD4, BRD2 and BRD3 proteins in the SU-DHL-4 cell line; endogenous in cells; host or cells: SU-DHL-4
Procedure: (§1) The human DLBCL cell line SU-DHL-4 was purchased from DSMZ. SU-DHL-4 was passaged using RPMI1640 medium containing 10 vol % FBS. The culture conditions were 37° C. and 5% CO2.
Anti-BRD2 antibody: Brd2 (D8964) Rabbit mAb (Cell Signaling Technology, Cat No. #5848S)
(§2) Changes in the amount of BRD4, BRD2 and BRD3 proteins in the SU-DHL-4 cell line by the test compound (compound 1b, compound 1l or compound P3) were detected by WB. The compound P3 is a compound described as example 14 in the known Patent Document 2 (WO 2015/081284), which was synthesized according to the method described in Patent Document 2 and used in this test.
(§3) The cultured SU-DHL-4 cells were seeded at 6×10^5 cells/well in a transparent 6-well plate (Code No. 140675, Thermo Fisher Scientific). After seeding, the cells were pre-cultured at 37° C. in a carbon dioxide gas incubator for 18 to 25 hours. Next, a 0.1 mmol/L DMSO solution of the test compound was prepared, diluted so that the concentration was 200-fold of the final concentration in RPMI1640 medium containing the above FBS and PS, and 1/200 volume of the diluted solution was added to each well. At this time, the final concentration of DMSO was adjusted to be 0.1 vol %. After adding the test compound, the cells were cultured at 37° C. in a carbon dioxide gas incubator for 24 hours.
(§4) After collecting the cells, the supernatant was aspirated, and Lysis buffer 6 (R&D systems, Cat No. 895561) was added to the pellet at 0.1 mL/sample. After incubating on ice for 60 minutes, the supernatant was collected by centrifugation at 15000 rpm for 10 minutes at 4° C.
(§5) Using Pierce BCA Protein Assay Kit (Thermo Fisher, Cat No. 23225), the protein concentration of each sample was quantified according to the manual attached to the kit, and then was diluted and prepared with Lane Marker Reducing Sample Buffer (5×) (Thermo Fisher, Cat No. 39000) and Lysis buffer 6 to 1 mg/mL. The cells were incubated at 95° C. for 5 minutes to prepare WB samples. WB samples were stored at −30° C. until electrophoresis.
(§6) The WB sample was thawed and used after vortex mixing and spin down. […]

[2] = biological target: T2, BRD3 (Homo sapiens, UniProt Q15059); experiment: Evaluation of BET proteolysis in SU-DHL-4 cell line by Western blotting: BRD3 (Test Example 4)
T2 construct: Changes in the amount of BRD4, BRD2 and BRD3 proteins in the SU-DHL-4 cell line; endogenous in cells; host or cells: SU-DHL-4
Procedure: as §1
Anti-BRD3 antibody: Anti-BRD3 antibody (2088C3a) (Santa Cruz Biotechnology, Cat No. sc-81202)
as §2, §3, §4, §5, §6

[3] = biological target: T3, BRD4 (Homo sapiens, UniProt O60885); experiment: Evaluation of BET proteolysis in SU-DHL-4 cell line by Western blotting: BRD4 (Test Example 4)
T3 construct: Changes in the amount of BRD4, BRD2 and BRD3 proteins in the SU-DHL-4 cell line; endogenous in cells; host or cells: SU-DHL-4
Procedure: as §1
Anti-BRD4 antibody: BRD4 (E2A7X) Rabbit mAb (Cell Signaling Technology, Cat No. #13440S)
as §2, §3, §4, §5, §6

T2 sequence (Q15059 whole entry): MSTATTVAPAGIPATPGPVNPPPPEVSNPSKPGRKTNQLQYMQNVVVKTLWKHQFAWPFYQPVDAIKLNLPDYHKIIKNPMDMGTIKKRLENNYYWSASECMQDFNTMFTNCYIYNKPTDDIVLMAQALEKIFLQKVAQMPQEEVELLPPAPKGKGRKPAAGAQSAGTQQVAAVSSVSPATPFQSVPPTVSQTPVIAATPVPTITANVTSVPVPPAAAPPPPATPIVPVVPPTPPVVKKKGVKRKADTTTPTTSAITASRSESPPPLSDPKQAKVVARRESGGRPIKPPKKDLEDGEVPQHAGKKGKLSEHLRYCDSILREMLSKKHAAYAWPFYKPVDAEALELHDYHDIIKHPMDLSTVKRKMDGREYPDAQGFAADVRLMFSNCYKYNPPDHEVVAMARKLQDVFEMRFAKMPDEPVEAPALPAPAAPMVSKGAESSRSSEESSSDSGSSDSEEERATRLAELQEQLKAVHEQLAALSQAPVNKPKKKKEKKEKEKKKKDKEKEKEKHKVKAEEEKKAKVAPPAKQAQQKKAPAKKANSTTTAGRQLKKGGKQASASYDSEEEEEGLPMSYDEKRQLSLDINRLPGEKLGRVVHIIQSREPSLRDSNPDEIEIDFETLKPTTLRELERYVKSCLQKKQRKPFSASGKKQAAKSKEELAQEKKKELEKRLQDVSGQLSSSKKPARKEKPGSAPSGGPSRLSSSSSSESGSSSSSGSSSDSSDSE
T1 sequence (P25440 whole entry): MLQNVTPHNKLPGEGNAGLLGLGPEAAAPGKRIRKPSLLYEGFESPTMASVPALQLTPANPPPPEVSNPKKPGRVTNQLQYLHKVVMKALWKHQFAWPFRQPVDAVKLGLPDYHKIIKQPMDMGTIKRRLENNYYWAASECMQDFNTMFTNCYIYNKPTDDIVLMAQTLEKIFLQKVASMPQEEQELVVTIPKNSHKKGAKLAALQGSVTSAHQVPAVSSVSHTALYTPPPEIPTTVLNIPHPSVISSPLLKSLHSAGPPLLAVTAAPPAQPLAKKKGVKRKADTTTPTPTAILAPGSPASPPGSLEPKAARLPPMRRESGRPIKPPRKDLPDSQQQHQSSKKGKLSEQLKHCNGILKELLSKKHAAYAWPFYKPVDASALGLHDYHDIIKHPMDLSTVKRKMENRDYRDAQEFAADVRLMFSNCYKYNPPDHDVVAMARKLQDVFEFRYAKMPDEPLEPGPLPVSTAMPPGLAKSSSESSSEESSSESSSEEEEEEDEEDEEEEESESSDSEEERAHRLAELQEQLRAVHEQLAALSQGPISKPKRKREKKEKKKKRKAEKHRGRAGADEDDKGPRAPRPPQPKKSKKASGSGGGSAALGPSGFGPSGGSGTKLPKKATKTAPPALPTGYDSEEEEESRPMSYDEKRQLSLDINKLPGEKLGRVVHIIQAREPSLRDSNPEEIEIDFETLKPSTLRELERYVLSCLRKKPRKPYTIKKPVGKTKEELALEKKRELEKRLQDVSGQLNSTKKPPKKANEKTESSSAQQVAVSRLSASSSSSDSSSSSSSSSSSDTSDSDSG

## CCNC(=O)C[C@@H]1N=C(c2ccc(SCCCCSc3ccc(C4=N[C@@H](CC(=O)NCC)c5nnc(C)n5-c5ccc(OC)cc54)cc3)cc2)c2cc(OC)ccc2-n2c(C)nnc21 [Compound P3, 2,2′-((4S,4'S)-6,6′-((butane-1,4-diylbis(sulfanediyl))bis(4,1-phenylene))bis(8-methoxy-1-methyl-4H-benzo[f][1,2,4]triazolo[4,3-a][1,4]diazepine-6,4-diyl))bis(N-ethylacetamide), reference compound]
[1]
  change in amount of BRD2 protein (band in Western blotting, FIG. 1): the band was not faint compared with that of control
[2]
  change in amount of BRD3 protein (band in Western blotting, FIG. 1): the band was not faint compared with that of control
[3]
  change in amount of BRD4 protein (band in Western blotting, FIG. 1): the band was not faint compared with that of control
